Reference: ChEMBL document CHEMBL5370560, “Isolation of Anti-SARS-CoV-2 Natural Products Extracted from Mentha canadensis and the Semi-synthesis of Antiviral Derivatives” (J Nat Prod, 2023)
Calls of active or inactive are those of the source. The calls are words filed in the database; no cut-off is given here.

Key:
SARS-CoV-2 [1] = assay: (§1) Antiviral activity against SARS-CoV-2 Delta infected in African green monkey Vero E6 cells assessed as inhibition of plaque formation at 5 uM incubated for 1 hr followed by virus-drug mixture washout and further addition of media without compound for 5 to 7 days by crystal violet staining based assay relative to control; type: functional, Severe acute respiratory syndrome coronavirus 2; conditions: for inhibition at 5 µM: Severe acute respiratory syndrome coronavirus 2, Delta, Vero C1008
SARS-CoV-2 [2] = assay: as §1, with “SARS-CoV-2 Omicron BA.1” for “SARS-CoV-2 Delta”, “at 50” for “at 5”; type: functional, Severe acute respiratory syndrome coronavirus 2; conditions: for inhibition at 50 µM: Severe acute respiratory syndrome coronavirus 2, Omicron BA.1, Vero C1008
SARS-CoV-2 [3] = assay: as §1, with “Omicron BA.1” for “Delta”; type: functional, Severe acute respiratory syndrome coronavirus 2; conditions: for inhibition at 5 µM: Severe acute respiratory syndrome coronavirus 2, Omicron BA.1, Vero C1008
SARS-CoV-2 [4] = assay: as §1, with “at 0.5” for “at 5”; type: functional, Severe acute respiratory syndrome coronavirus 2
SARS-CoV-2 [5] = assay: (§2) Antiviral activity against SARS-CoV-2 Omicron BA.1 infected in African green monkey Vero E6 cells assessed as inhibition of plaque formation incubated for 1 hr followed by virus-drug mixture washout and further addition of media without compound for 5 to 7 days by crystal violet staining based assay; type: functional, organism-based; conditions: Severe acute respiratory syndrome coronavirus 2, Omicron BA.1, Vero C1008
SARS-CoV-2 [6] = assay: Antiviral activity against SARS-CoV-2 Delta infected in African green monkey Vero E6 cells assessed as inhibition of plaque formation incubated for 1 hr followed by virus-drug mixture washout and further addition of media without compound for 5 to 7 days by crystal violet staining based assay; type: functional, organism-based; conditions: Severe acute respiratory syndrome coronavirus 2, Delta, Vero C1008
[7] = Cytotoxicity against African green monkey Vero E6 cells assessed as reduction in cell viability incubated for 48 hrs by MTT assay; type: toxicity, cell-based, Vero C1008; conditions: chlorocebus sabaeus
SARS-CoV-2 [8] = assay: as §1, with “at 50” for “at 5”; type: functional, Severe acute respiratory syndrome coronavirus 2; conditions: for inhibition at 50 µM: Severe acute respiratory syndrome coronavirus 2, Delta, Vero C1008
[9] = target: Spike glycoprotein (Severe acute respiratory syndrome coronavirus 2) (UniProt P0DTC2); assay: Binding affinity to NTA chip immobilised recombinant SARS-CoV-2 Delta spike protein RBD at 50 uM measured for 500 secs by SPR analysis; conditions: time 500.0 sec
SARS-CoV-2 [10] = assay: as §1, with “SARS-CoV-2 Omicron BA.1” for “SARS-CoV-2 Delta”, “at 0.5” for “at 5”; type: functional, Severe acute respiratory syndrome coronavirus 2; conditions: for inhibition at 0.5 µM: Severe acute respiratory syndrome coronavirus 2, Omicron BA.1, Vero C1008
SARS-CoV-2 [11] = assay: as §1, with “at 50” for “at 5”, “assay” for “assay relative to control”; type: functional, organism-based; conditions: Severe acute respiratory syndrome coronavirus 2
SARS-CoV-2 [12] = assay: as §1, with “at 0.5” for “at 5”, “assay” for “assay relative to control”; type: functional, organism-based; conditions: Severe acute respiratory syndrome coronavirus 2
SARS-CoV-2 [13] = assay: as §1, with “assay” for “assay relative to control”; type: functional, organism-based; conditions: Severe acute respiratory syndrome coronavirus 2
SARS-CoV-2 [14] = assay: (§3) Synergistic antiviral activity against SARS-CoV-2 Delta infected in Vero E6 cells incubated for 1 hr in presence of ivermectin followed by virus-drug mixture washout and further addition of media without compound for 5 to 7 days by crystal violet staining based assay; type: functional, organism-based; conditions: Severe acute respiratory syndrome coronavirus 2
SARS-CoV-2 [15] = assay: (§4) Synergistic antiviral activity against SARS-CoV-2 Omicron BA.1 infected in Vero E6 cells incubated for 1 hr in presence of ivermectin followed by virus-drug mixture washout and further addition of media without compound for 5 to 7 days by crystal violet staining based assay; type: functional, organism-based; conditions: Severe acute respiratory syndrome coronavirus 2
SARS-CoV-2 [16] = assay: as §3, with “cells assessed as reduction in plaque formation by measuring combination index at ED50” for “cells”, “Chou-Talalay method” for “crystal violet staining based assay”; type: functional, Severe acute respiratory syndrome coronavirus 2
SARS-CoV-2 [17] = assay: as §4, with “cells assessed as reduction in plaque formation by measuring combination index at ED50” for “cells”, “Chou-Talalay method” for “crystal violet staining based assay”; type: functional, Severe acute respiratory syndrome coronavirus 2
SARS-CoV-2 [18] = assay: as §1, with “SARS-CoV-2 Omicron BA.1” for “SARS-CoV-2 Delta”, “at 100” for “at 5”; type: functional; conditions: Severe acute respiratory syndrome coronavirus 2, Omicron BA.1, Vero C1008
SARS-CoV-2 [19] = assay: as §1, with “at 100” for “at 5”; type: functional; conditions: Severe acute respiratory syndrome coronavirus 2, Delta, Vero C1008
SARS-CoV-2 [20] = assay: as §2, with “formation at 0.5 uM” for “formation”; type: functional, organism-based; conditions: Severe acute respiratory syndrome coronavirus 2
SARS-CoV-2 [21] = assay: as §2, with “formation at 50 uM” for “formation”; type: functional, organism-based; conditions: Severe acute respiratory syndrome coronavirus 2
SARS-CoV-2 [22] = assay: Antiviral activity against SARS-CoV-2 infected in African green monkey Vero E6 cells preincubated for 1 hr followed by addition of fresh medium containing compounds and measured after 24 hrs by qRT-PCR analysis; type: functional, organism-based; conditions: Severe acute respiratory syndrome coronavirus 2, Vero C1008

For `CCc1cccc(NC(=O)[C@@H](Cc2ccc(O)c(O)c2)OC(=O)/C=C/c2ccc(O)c(O)c2)c1`, the “inhibition (INH)” value (SARS-CoV-2 [1]) was 53%, the “inhibition (INH)” value (SARS-CoV-2 [2]) was 100% and the “inhibition (INH)” value (SARS-CoV-2 [3]) was 57%. The “inhibition (INH)” value (SARS-CoV-2 [4]) was 14%, the IC50 (SARS-CoV-2 [5]) was 2.7 µM and the IC50 (SARS-CoV-2 [6]) was 12.6 µM. The CC50 at 48 h [7] was 50.7 µM, the “inhibition (INH)” value (SARS-CoV-2 [8]) was 100% and the Activity [9] was “inactive”. For the same compound, the “inhibition (INH)” value (SARS-CoV-2 [10]) was 24%.

With `COc1c(O)c(OC)c2oc(-c3ccc(O)cc3)cc(=O)c2c1O` the inhibition (SARS-CoV-2 [11]) was “Active”.

With `O=C(/C=C/c1ccc(O)c(O)c1)O[C@H](Cc1ccc(O)c(O)c1)C(=O)N1CCCCC1` the inhibition (SARS-CoV-2 [12]) was “inactive”, the inhibition at 50 µM (SARS-CoV-2 [2]) was 67% and the inhibition at 5 µM (SARS-CoV-2 [3]) was 38%. For the same compound, the CC50 at 48 h [7] was > 100 µM, the inhibition at 50 µM (SARS-CoV-2 [8]) was 33% and the inhibition (SARS-CoV-2 [13]) was “inactive”. The inhibition at 0.5 µM (SARS-CoV-2 [10]) was 24%.

With `COc1cc(C(=O)O)cc(OC)c1O` the Activity (SARS-CoV-2 [14]) was “inactive”, the inhibition (SARS-CoV-2 [11]) was “Active” and the Activity (SARS-CoV-2 [15]) was “inactive”.

`COC(=O)[C@@H](Cc1ccc(O)c(O)c1)OC(=O)/C=C/c1ccc(O)c(O)c1` [METHYL ROSMARINATE] gave a CI (SARS-CoV-2 [16]) of 1.74, an IC50 (SARS-CoV-2 [5]) of 57 µM and an IC50 (SARS-CoV-2 [6]) of 88.9 µM. The CC50 at 48 h [7] was > 1000 µM, the inhibition (SARS-CoV-2 [11]) was “Active” and the Activity [9] was “inactive”. The CI (SARS-CoV-2 [17]) was 1.67.

`O=C(/C=C/c1ccc(O)c(O)c1)O[C@H](Cc1ccc(O)c(O)c1)C(=O)O` [ROSMARINIC ACID] showed an inhibition at 50 µM (SARS-CoV-2 [2]) of 33%, an inhibition at 100 µM (SARS-CoV-2 [18]) of 40% and an inhibition at 100 µM (SARS-CoV-2 [19]) of 9%. For the same compound, the inhibition at 50 µM (SARS-CoV-2 [8]) was 7%.

For `O=C(/C=C/c1ccc(O)c(O)c1)O[C@H](Cc1ccc(O)c(O)c1)C(=O)NCCCCCCCl`, the inhibition (SARS-CoV-2 [12]) was “inactive”, the inhibition at 5 µM (SARS-CoV-2 [1]) was 18% and the inhibition at 50 µM (SARS-CoV-2 [2]) was 66%. The inhibition at 5 µM (SARS-CoV-2 [3]) was 29%, the CC50 at 48 h [7] was > 100 µM and the inhibition at 50 µM (SARS-CoV-2 [8]) was 75%. It also gave an inhibition at 0.5 µM (SARS-CoV-2 [10]) of 14%.

In the case of `CCCCCCNC(=O)[C@@H](Cc1ccc(O)c(O)c1)OC(=O)/C=C/c1ccc(O)c(O)c1`, the inhibition (SARS-CoV-2 [12]) is reported as “inactive”, the inhibition at 5 µM (SARS-CoV-2 [1]) is reported as 23% and the inhibition at 50 µM (SARS-CoV-2 [2]) is reported as 77%. The inhibition at 5 µM (SARS-CoV-2 [3]) was 21%, the CC50 at 48 h [7] was > 100 µM and the inhibition at 50 µM (SARS-CoV-2 [8]) was 95%. For the same compound, the inhibition at 0.5 µM (SARS-CoV-2 [10]) was 21%.

With `O=C(/C=C/c1ccc(O)c(O)c1)O[C@H](Cc1ccc(O)c(O)c1)C(=O)N1CCOCC1` the inhibition (SARS-CoV-2 [12]) was “inactive”, the inhibition (SARS-CoV-2 [20]) was “inactive” and the inhibition at 50 µM (SARS-CoV-2 [2]) was 23%. The inhibition at 5 µM (SARS-CoV-2 [3]) was 19%, the CC50 at 48 h [7] was > 100 µM and the inhibition at 50 µM (SARS-CoV-2 [8]) was 8%. The inhibition (SARS-CoV-2 [13]) was “inactive”.

With `O=C(/C=C/c1ccc(O)c(O)c1)O[C@H](Cc1ccc(O)c(O)c1)C(=O)NCc1ccco1` the inhibition (SARS-CoV-2 [12]) was “inactive”, the inhibition (SARS-CoV-2 [20]) was “inactive” and the inhibition at 50 µM (SARS-CoV-2 [2]) was 66%. For the same compound, the inhibition at 5 µM (SARS-CoV-2 [3]) was 29%, the CC50 at 48 h [7] was > 100 µM and the inhibition at 50 µM (SARS-CoV-2 [8]) was 20%. The inhibition (SARS-CoV-2 [13]) was “inactive”.

For `CCCCCCCCCCCCNC(=O)[C@@H](Cc1ccc(O)c(O)c1)OC(=O)/C=C/c1ccc(O)c(O)c1`, the “inhibition (INH)” value (SARS-CoV-2 [1]) was 78%, the “inhibition (INH)” value (SARS-CoV-2 [3]) was 54% and the “inhibition (INH)” value (SARS-CoV-2 [4]) was 15%. It also gave an IC50 (SARS-CoV-2 [5]) of 0.77 µM, an IC50 (SARS-CoV-2 [6]) of 0.93 µM and a CC50 at 48 h [7] of 17.5 µM. The inhibition (SARS-CoV-2 [21]) was “inactive”, the inhibition (SARS-CoV-2 [11]) was “inactive” and the Activity [9] was “inactive”. The “inhibition (INH)” value (SARS-CoV-2 [10]) was 17%.

For `C#CCNC(=O)[C@@H](Cc1ccc(O)c(O)c1)OC(=O)/C=C/c1ccc(O)c(O)c1`, the inhibition (SARS-CoV-2 [12]) was “inactive”, the inhibition at 50 µM (SARS-CoV-2 [2]) was 26% and the inhibition at 5 µM (SARS-CoV-2 [3]) was 17%. The CC50 at 48 h [7] was > 100 µM, the inhibition at 50 µM (SARS-CoV-2 [8]) was 30% and the inhibition (SARS-CoV-2 [13]) was “inactive”. It also gave an inhibition at 0.5 µM (SARS-CoV-2 [10]) of 17%.

In the case of `O=C(O)[C@H](O)Cc1ccc(O)c(O)c1`, the inhibition at 50 µM (SARS-CoV-2 [2]) is reported as 40%, the inhibition at 100 µM (SARS-CoV-2 [18]) is reported as 40% and the inhibition at 100 µM (SARS-CoV-2 [19]) is reported as 19%. For the same compound, the inhibition at 50 µM (SARS-CoV-2 [8]) was 19% and the EC50 (SARS-CoV-2 [22]) was 0.97 µM.

In the case of `O=C(O)/C=C/c1ccc(O)c(O)c1` [CAFFEIC ACID], the inhibition at 50 µM (SARS-CoV-2 [2]) is reported as 36%, the inhibition at 100 µM (SARS-CoV-2 [18]) is reported as 42% and the inhibition at 100 µM (SARS-CoV-2 [19]) is reported as 29%. It also gave an inhibition at 50 µM (SARS-CoV-2 [8]) of 23%.

In the case of `O=C(/C=C/c1ccc(O)c(O)c1)O[C@H](Cc1ccc(O)c(O)c1)C(=O)NCc1ccccc1`, the inhibition (SARS-CoV-2 [12]) is reported as “inactive”, the inhibition at 5 µM (SARS-CoV-2 [1]) is reported as 18% and the inhibition (SARS-CoV-2 [20]) is reported as “inactive”. For the same compound, the inhibition at 50 µM (SARS-CoV-2 [2]) was 58%, the inhibition at 5 µM (SARS-CoV-2 [3]) was 17% and the CC50 at 48 h [7] was > 100 µM. It also gave an inhibition at 50 µM (SARS-CoV-2 [8]) of 57%.

With `COCCNC(=O)[C@@H](Cc1ccc(O)c(O)c1)OC(=O)/C=C/c1ccc(O)c(O)c1` the inhibition (SARS-CoV-2 [12]) was “inactive”, the inhibition (SARS-CoV-2 [20]) was “inactive” and the inhibition at 50 µM (SARS-CoV-2 [2]) was 29%. The inhibition at 5 µM (SARS-CoV-2 [3]) was 13%, the CC50 at 48 h [7] was > 100 µM and the inhibition at 50 µM (SARS-CoV-2 [8]) was 23%. For the same compound, the inhibition (SARS-CoV-2 [13]) was “inactive”.
